According to paper PMC9090415, “Discovery of small molecule inhibitors of Plasmodium falciparum apicoplast DNA polymerase” (Journal of Enzyme Inhibition and Medicinal Chemistry, 2022):

Target: P. falciparum apicoplast DNA polymerase (Pf-apPOL) (Plasmodium falciparum, UniProt Q8ILY1)
Experiment: Fluorescence-based high-throughput DNA polymerase assay (molecular beacon), primary screen and dose-response
Type: biochemical
Settings: supplemental file 2, sheet IC50 nontoxic compounds; Pf-apPOL
Experimental: The HT assay employs a molecular beacon, a stem-loop DNA template with a Cy3 dye and the Black Hole Quencher on the 3′ and 5′ ends of the DNA, respectively. Pf-apPOL concentration is based on a calculated absorptivity of ε280 = 56750 M^−1 cm^−1. Reactions were carried out at 25 °C, using Corning 3575 […] (well-volume, 20 µL). Assays testing for compound inhibition composed of reaction buffer (pH 7.9 in 50 mM potassium acetate, 20 mM Tris-acetate and 10 mM magnesium acetate), Pf-apPOL (20 nM), DNA substrate (20 nM), dNTPs (6 µM), and compound (10 µM in DMSO). The DNA and nucleotide substrates (dNTPs) were at concentrations of 20 nM and 6 µM, respectively, in the assay. Pf-apPOL was incubated in the reaction buffer with dNTPs and the compound of interest (10 µM, in the assay) at 25 °C for 10 min. The DNA substrate was then added and the reaction was allowed to proceed for 90 min at 25 °C.
Each assay plate contained 16 negative controls (no Pf-apPOL, DMSO present) and 16 positive controls (Pf-apPOL present, no DMSO). The fluorescence of each well was determined using a BioTek Synergy Neo fluorescence plate reader using excitation and emission wavelengths of 555 and 570 nm, respectively.
In the above, Min is the average of fluorescence emission of the negative controls (substrate only), Max the average fluorescence emission from the positive controls (enzyme + substrate), and Test the emission from the assays in the presence of compounds (enzyme + compound + substrates). […] […] The IC50 of each compound was determined using Equation (2): (2) IC50= Vmax/(1+ (I/IC50)^n)
In the above, n measures cooperativity, with n > 1 indicating synergistic binding of more than a single molecule of the compound.
To identify apPOL inhibitors we utilised our previously developed high-throughput DNA polymerase assay. The HT assay is based on a molecular beacon DNA template that forms a stem-loop with a Cy3 dye and the Black Hole Quencher on the 3′ and 5′ ends of the DNA, respectively. DNA polymerase activity extends an annealed primer through the stem region, displacing the fluorophore from the quencher, thereby increasing its fluorescence (Figure 1(A)). The assay accurately recapitulates the kinetic behaviour of apPOL, as measured through more conventional low-throughput gel-based assays. The Z′ factor for the assay described here was 0.9 across all plates (data not shown).
Figure 1. High-throughput screening. (A) The fluorescent-based DNA polymerase assay used to screen the compound libraries. The DNA template strand is a hairpin loop with a primer annealed to the loop. The 3’ end of the primer is 11 bases away from the 6 bp duplex. Strand displacement activity of the DNA polymerase separates the Cy3 dye from the Black hole quencher leading to an increase in fluorescent signal. (B) The high-throughput assay workflow. The DNA polymerase is incubated with […] compound for 10 min prior to addition of the hairpin substrate. The reaction is quenched at 3 different time points and the fluorescent signal is measured and % inhibition is determined using the provided equation.

Chain of P. falciparum apicoplast DNA polymerase (Pf-apPOL) (Q8ILY1 entry or part of it): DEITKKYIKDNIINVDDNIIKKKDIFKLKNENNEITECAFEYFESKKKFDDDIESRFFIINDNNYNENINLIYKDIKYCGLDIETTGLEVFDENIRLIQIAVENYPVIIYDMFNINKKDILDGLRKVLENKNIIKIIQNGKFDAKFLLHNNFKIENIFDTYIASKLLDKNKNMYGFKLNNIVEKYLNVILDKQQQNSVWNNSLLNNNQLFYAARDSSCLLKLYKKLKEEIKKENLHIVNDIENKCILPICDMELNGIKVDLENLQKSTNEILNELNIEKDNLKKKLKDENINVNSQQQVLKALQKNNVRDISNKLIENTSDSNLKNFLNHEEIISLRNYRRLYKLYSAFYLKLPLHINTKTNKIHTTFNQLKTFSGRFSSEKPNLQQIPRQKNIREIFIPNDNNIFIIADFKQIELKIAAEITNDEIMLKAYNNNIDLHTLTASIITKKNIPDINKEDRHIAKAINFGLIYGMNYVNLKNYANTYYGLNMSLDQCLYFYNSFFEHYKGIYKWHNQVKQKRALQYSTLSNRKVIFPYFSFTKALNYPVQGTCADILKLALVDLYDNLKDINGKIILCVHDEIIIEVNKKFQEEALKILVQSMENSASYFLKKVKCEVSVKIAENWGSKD

Compound	IC50 [µM]
CCOc1ccccc1-c1nc(-c2ccc(=O)[nH]c2)no1 [Molecule 76]	38.7
Cc1ccccc1NC(=O)Cn1ccc2c(=O)[nH]ccc21 [Molecule 85]	9.12
CCCCOC(=O)CCCCCN1C(=O)C(=Cc2ccc(OC)cc2)SC1=S [Molecule 75]	56.7
